Active and inactive are the calls of the source.
Columns and labels:
[1] = cytotoxicity toward NIH3T3 fibroblasts, dose response, counter-screen, cell-based, ATP luminescence, mouse fibroblasts (AID 2010); assay type: functional;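 note: cells exposed to compound for about 90 hours before reading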
Beta-arrestin-1 = Beta-arrestin-1 (Homo sapiens, UniProt P49407); experiment: inhibitors of arrestin peptide binding to AP2, dose response, biochemical, cherry pick 1, beta2-adaptin appendage, flow cytometry (AID 588783); assay type: functional
Sequence of Beta-arrestin-1 (P49407 whole entry): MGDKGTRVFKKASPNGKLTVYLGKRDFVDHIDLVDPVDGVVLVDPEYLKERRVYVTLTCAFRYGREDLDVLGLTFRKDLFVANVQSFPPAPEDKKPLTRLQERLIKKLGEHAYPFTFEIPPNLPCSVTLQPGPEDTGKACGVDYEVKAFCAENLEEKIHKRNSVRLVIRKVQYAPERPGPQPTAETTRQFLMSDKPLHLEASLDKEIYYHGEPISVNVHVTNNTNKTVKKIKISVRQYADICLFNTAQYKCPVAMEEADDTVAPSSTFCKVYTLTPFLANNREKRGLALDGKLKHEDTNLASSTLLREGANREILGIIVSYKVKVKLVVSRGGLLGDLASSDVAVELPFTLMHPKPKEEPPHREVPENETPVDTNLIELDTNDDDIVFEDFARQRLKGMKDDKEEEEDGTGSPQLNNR

[2] = molecular target: T1, Rac GTPase-activating protein 1 (Homo sapiens, UniProt Q9H0H5); experiment: MgcRacGAP GTPase-activating activity inhibitors, confirmation, biochemical, ADP Hunter fluorescence, primary and confirmatory (AID 624330); assay type: functional
T1 sequence (Q9H0H5 whole entry): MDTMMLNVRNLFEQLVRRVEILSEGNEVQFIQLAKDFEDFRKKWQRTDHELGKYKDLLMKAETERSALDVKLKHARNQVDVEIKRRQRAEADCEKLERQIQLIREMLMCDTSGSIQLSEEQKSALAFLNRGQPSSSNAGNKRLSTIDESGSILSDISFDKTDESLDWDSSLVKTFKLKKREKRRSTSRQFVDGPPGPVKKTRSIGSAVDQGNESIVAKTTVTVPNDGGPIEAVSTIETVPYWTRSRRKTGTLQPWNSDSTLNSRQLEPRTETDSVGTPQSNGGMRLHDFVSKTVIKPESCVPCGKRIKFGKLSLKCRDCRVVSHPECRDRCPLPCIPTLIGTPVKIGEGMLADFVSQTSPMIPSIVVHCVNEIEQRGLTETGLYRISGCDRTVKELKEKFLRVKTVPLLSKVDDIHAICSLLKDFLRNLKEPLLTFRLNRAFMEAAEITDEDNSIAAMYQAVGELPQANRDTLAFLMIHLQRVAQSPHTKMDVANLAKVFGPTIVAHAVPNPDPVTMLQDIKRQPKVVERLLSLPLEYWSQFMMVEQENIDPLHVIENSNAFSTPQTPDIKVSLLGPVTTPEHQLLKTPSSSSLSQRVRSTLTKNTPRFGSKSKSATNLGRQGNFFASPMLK

Vero = Vero cell cytotoxicity, cytotoxicity control for flavivirus capping enzyme inhibitors (AID 588742); assay type: functional; settings: Chlorocebus sabaeus
[3] = inhibitors of intracellular T. cruzi replication, confirmation, NIH3T3 host cells, beta-gal luminescence (AID 2044); assay type: functional, cell-based;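 note: intracellular parasites grown in NIH/3T3 mouse fibroblasts as host cells; luminescent beta-galactosidase reporter signal from transgenic T. cruzi replicating inside host cells; inhibitors lower the luminescence signal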
[4] = molecular target: T2, Polyadenylate-binding protein 1 (Homo sapiens, UniProt P11940); experiment: PABP1 MLLE–PAM2 binding inhibitor potency, dose response, biochemical, fluorescence polarization, FITC-PAM2 peptide (AID 602259); assay type: functional; settings: read-out: IC50_Mean
T2 sequence (P11940 whole entry): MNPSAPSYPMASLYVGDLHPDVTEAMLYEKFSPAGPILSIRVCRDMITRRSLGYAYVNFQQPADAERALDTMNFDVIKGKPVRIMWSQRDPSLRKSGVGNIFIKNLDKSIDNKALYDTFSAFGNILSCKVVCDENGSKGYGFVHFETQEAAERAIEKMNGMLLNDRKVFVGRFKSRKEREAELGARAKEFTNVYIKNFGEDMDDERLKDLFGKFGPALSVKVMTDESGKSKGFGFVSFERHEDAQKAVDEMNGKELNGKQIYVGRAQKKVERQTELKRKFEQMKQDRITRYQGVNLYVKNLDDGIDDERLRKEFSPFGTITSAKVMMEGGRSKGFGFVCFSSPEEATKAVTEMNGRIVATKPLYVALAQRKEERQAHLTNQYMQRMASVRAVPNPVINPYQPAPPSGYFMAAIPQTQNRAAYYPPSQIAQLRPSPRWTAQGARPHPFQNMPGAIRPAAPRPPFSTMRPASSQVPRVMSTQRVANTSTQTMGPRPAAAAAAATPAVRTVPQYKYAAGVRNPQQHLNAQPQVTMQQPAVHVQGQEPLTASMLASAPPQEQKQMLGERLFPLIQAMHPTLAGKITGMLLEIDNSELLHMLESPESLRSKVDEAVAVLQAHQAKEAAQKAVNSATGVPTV

Hexokinase HKDC1 = molecular target: T3, Hexokinase HKDC1 (Homo sapiens, UniProt Q2TB90); experiment: HKDC1 hexokinase inhibitors, dose response, biochemical, W721R variant (AID 504729); assay type: functional
T3 sequence (Q2TB90 whole entry): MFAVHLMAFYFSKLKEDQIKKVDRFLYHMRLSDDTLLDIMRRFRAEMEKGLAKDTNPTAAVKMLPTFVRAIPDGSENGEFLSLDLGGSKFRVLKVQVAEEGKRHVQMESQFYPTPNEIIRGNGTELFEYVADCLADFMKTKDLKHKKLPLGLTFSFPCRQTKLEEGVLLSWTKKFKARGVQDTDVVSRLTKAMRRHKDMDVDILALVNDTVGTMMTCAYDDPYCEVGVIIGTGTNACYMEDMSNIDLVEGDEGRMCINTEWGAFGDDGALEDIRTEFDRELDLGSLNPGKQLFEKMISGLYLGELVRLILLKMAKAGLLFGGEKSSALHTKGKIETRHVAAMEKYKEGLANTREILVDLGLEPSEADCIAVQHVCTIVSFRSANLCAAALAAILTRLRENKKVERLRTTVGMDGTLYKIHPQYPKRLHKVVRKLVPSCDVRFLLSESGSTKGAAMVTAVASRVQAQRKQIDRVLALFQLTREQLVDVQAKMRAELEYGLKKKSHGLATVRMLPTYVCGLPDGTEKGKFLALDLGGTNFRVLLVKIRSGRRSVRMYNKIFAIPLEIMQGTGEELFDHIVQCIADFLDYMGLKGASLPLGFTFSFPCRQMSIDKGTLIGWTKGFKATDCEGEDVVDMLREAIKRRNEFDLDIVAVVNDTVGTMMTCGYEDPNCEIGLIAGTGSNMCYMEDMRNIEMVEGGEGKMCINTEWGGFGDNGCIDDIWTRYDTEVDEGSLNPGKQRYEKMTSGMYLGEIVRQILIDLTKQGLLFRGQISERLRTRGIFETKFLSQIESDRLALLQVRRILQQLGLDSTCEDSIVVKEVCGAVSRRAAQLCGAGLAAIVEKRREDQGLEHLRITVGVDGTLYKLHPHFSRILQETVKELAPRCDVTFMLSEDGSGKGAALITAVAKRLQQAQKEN

[5] = molecular target: T2, Polyadenylate-binding protein 1; experiment: PABP1 MLLE–PAM2 interaction inhibitors, dose response, miRNA deadenylation inhibitor project, biochemical, fluorescence polarization, Cy5-PAM2 peptide, secondary (AID 602260); assay type: functional; settings: read-out: IC50_Mean
Beta-galactosidase = Beta-galactosidase (Escherichia coli, UniProt Q8VNN2); experiment: beta-galactosidase enzyme inhibitors and activators, dose response, artefact control for CCR6 antagonist project, biochemical, E. coli enzyme, set 3 (AID 504712); assay type: functional
Sequence of Beta-galactosidase (Q8VNN2 whole entry): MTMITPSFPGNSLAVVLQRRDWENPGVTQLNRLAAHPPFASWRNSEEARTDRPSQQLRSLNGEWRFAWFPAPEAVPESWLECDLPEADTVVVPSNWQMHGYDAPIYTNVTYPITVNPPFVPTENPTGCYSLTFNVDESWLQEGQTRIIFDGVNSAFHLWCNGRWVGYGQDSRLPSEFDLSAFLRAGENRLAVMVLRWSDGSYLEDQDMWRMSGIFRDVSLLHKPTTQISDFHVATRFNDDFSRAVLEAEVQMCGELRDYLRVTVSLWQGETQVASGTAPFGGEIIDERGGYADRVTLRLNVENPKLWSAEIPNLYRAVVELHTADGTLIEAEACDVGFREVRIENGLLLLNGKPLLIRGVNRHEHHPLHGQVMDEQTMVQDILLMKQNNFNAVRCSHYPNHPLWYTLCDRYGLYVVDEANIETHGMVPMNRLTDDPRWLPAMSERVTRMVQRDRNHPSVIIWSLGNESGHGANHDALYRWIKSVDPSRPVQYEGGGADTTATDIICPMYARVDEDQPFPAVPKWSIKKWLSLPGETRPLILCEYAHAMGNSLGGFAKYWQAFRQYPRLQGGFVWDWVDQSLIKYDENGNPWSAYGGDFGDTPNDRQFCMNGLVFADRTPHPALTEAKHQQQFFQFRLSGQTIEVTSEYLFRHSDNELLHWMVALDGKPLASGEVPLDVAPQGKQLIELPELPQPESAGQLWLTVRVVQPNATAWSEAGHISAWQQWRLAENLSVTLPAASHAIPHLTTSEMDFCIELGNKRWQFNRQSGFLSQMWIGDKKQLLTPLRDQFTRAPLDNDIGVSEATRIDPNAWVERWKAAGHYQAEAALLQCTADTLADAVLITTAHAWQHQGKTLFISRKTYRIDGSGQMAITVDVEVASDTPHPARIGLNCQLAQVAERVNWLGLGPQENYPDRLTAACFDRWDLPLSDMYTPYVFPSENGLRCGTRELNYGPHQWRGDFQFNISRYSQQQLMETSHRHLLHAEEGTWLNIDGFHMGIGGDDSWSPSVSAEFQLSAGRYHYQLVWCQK

Genome polyprotein = Genome polyprotein (dengue virus type 2, UniProt P29990); experiment: Dengue-2 NS5 methyltransferase inhibitors, primary screen, biochemical, confirmation dose response (AID 588689); assay type: functional
Sequence of Genome polyprotein (P29990 2492-3391 limits assumed): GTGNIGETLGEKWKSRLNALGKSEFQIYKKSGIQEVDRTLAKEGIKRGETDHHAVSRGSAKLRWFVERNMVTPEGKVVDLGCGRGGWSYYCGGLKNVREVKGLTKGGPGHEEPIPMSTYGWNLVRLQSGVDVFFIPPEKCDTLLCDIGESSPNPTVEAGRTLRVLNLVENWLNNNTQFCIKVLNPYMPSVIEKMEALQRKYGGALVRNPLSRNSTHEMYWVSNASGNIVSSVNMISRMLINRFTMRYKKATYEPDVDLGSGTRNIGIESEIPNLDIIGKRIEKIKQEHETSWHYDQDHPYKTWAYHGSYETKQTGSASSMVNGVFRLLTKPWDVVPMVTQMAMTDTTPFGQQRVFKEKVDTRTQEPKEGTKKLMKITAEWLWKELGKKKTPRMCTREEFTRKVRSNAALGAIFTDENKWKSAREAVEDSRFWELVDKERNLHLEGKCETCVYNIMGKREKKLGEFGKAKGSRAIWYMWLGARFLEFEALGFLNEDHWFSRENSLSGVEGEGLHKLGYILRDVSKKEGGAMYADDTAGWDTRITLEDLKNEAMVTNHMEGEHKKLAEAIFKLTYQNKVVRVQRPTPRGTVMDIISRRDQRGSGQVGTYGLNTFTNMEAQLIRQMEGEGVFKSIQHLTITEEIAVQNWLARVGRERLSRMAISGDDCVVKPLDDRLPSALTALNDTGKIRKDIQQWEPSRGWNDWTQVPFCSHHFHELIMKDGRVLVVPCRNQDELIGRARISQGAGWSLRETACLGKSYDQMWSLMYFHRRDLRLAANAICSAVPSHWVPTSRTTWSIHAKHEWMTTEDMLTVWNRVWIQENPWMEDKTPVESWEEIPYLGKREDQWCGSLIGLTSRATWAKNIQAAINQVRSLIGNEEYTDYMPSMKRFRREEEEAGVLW

HEK293 [6] = experiment: cytotoxicity in HEK293T NF-kB-Luc cells, SAR follow-up, cytotoxicity control for NF-kB activator project, cell-based, resazurin fluorescence (AID 493251); assay type: functional; settings: Homo sapiens
HEK293 [7] = experiment: SAR Analysis of small molecule inhibitors of B-cell specific antigen receptor-induced NF-kB activation in a HEK-293T cell line using a luminescence assay - Set 2. [Related pubchem assays (depositor defined):AID435022, AID435025, AID489021]; assay type: functional, cell-based; settings: Homo sapiens
Jurkat = experiment: SAR Analysis of small molecule inhibitors of […] specific antigen receptor-induced NF-kB activation in a Jurkat cell line using a luminescence assay - Set 3. [Related pubchem assays (depositor defined):AID435022, AID435025, AID465]; assay type: functional, cell-based; settings: Homo sapiens
Phospholipase A2 = Phospholipase A2 (Homo sapiens, UniProt P04054); assay type: functional;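 note: confirmatory dose-response counterscreen on phospholipase A2, testing hits that came from an ultra-high-throughput screen for ATG4B inhibitors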
Sequence of Phospholipase A2 (P04054 whole entry): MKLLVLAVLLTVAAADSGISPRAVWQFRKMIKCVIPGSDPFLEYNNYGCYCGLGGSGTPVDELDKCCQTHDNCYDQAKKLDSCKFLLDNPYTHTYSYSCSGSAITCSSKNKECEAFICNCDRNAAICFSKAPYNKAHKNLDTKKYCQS

[8] = Luminescence Cell-Based Dose Confirmation HTS to Identify Inhibitors of Platelet Dense Granule Release. [Related pubchem assays: 1663 (Primary HTS), 1678 (Summary of Project)]; assay type: functional
Cysteine protease ATG4B = Cysteine protease ATG4B (Homo sapiens, UniProt Q9Y4P1); assay type: functional;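 note: Fluorescence-based dose-response confirmation assay measuring inhibition of ATG4B activity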
Sequence of Cysteine protease ATG4B (Q9Y4P1 whole entry): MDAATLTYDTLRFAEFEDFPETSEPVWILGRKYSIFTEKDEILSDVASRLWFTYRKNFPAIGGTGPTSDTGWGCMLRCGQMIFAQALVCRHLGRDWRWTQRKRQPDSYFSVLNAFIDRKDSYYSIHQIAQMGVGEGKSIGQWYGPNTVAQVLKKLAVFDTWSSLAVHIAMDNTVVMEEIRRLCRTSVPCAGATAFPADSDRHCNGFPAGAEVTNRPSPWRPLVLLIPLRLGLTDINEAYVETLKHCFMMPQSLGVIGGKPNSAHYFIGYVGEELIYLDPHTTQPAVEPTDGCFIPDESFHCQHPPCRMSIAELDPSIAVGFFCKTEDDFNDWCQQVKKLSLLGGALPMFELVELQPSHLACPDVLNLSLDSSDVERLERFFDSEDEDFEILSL

[9] = molecular target: Luciferin 4-monooxygenase (Photinus pyralis, UniProt P08659); experiment: firefly luciferase enzyme inhibitors, dose response, biochemical, luminescence (AID 1891)
Sequence of Luciferin 4-monooxygenase (P08659 whole entry): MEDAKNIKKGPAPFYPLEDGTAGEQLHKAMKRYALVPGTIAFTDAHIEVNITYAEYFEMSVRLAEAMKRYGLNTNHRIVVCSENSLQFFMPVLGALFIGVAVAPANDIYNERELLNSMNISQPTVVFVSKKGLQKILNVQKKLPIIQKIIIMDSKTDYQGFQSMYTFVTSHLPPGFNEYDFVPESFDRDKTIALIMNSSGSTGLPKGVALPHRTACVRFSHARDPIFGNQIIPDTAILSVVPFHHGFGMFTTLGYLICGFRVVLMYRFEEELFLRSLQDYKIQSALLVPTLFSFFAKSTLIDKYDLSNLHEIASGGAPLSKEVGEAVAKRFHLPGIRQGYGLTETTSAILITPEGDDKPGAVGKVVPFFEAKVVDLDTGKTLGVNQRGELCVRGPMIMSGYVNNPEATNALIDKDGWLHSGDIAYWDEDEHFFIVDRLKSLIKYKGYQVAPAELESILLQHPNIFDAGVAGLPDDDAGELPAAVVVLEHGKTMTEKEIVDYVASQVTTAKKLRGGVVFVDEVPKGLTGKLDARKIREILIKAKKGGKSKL

O=C1C(Cl)=C(NC(=O)c2ccccc2)C(=O)C(Cl)=C1NC(=O)c1ccccc1
EC50 [1]: 2.78 µM (active)
IC50 (Beta-arrestin-1): 4.97 µM (active)
IC50 [2]: 6.06 µM (active)
CC50 (Vero): 29.5 µM (active)
EC50 [3]: 2.13 µM (active)
IC50 [4]: > 66 µM (inactive)
IC50 (Hexokinase HKDC1): 17.3 µM (active)
IC50 [5]: 44.5 µM (inactive)
IC50 (Beta-galactosidase): > 66.6 µM (inactive)
IC50 (Genome polyprotein): 3.53 µM (active)

CNC(=O)CCc1nc(-c2ccc(Cl)cc2)no1
IC50 (HEK293 [6]): > 80 µM (inactive)
IC50 (HEK293 [7]): > 80 µM (inactive)
IC50 (Jurkat): > 80 µM (inactive)

OC(CNCc1ccc(Cl)c(Cl)c1)c1ccccc1 (configuration not stated)
IC50 (Phospholipase A2): 9.81 µM (active)
EC50 [8]: 19 µM (active)
IC50 (Cysteine protease ATG4B): 14.5 µM (active)
EC50 [9]: > 112 µM (not active)
